Counter-ions that a name gives are not always drawn.
Assays:
[1] = biological target: T1, TDO2 in A172 cancer cells (Homo sapiens, UniProt P48775); experiment: TDO2 Cellular Assay (kynurenine production in A172 cancer cells); assay type: cell-based; conditions: L-Trp 1 mM, 24 hours incubation, kynurenine at 490 nm
T1 construct: endogenous in cells; host or cells: A172 cancer cells
Method: A172 cancer cells (3×10^4 per well) in 85 μL DMEM medium containing 10% FBS were seeded in a 96-well plate and incubated at 95% humidity and 5% CO2 at 37° C. for overnight. On the next day, L-Trp solution (10 μL, 1 mM final concentration) and serial dilutions of the test compounds and DMEM medium resulting in a total final volume of 100 μL each well. The test compounds were dissolved in DMSO and successively diluted with pH7.5 butter (with final DMSO concentration of 0.25%) resulting in final concentrations of the test compounds ranging from 0 to 25 μM (0, 2.5, 7.5, 25, 75, 250, 750, 2500, 7500, & 25000 nM). After 24 hours of incubation, 70 uL of the supernatant per well was transferred to a new 96 well plate. 8 μL of trichloroacetic acid (6.1 N) was mixed into each well and incubated at 50° C. for 30 min to hydrolyze N-formylkynurenine to kynurenine. The reaction mixture was then centrifuged for 10 min at 2500 RPM to remove sediments. 50 μL of the supernatant per well was transferred to another 96 well plate and mixed with 50 μL of 2% (w/v) p-dimethylaminobenzaldehyde in acetic acid. The yellow color derived from kynurenine was measured at 490 nm using a microplate reader. Percent inhibition of the test compounds was determined by measuring the decrease in kynurenine as compared to the control of DMSO vehicle, which was calculated by formula of (WC−WT)/WC, where WC is the mean absorbance of the control well minus blank well; WT is the mean absorbance of the test well minus the blank well. Data was analyzed by GraphPad Prism 5 and the IC50 values were obtained by non-linear regression.
(§1) The IC50 values of for Compounds disclosed are listed in Table 2, A′: ≤0.5 μM; B′: >0.5 μM and ≤1 μM; C′: >1.0 μM and ≤5 uM; and D′: >5 μM.

[2] = biological target: T2, IDO1 in Hela cancer cells (Homo sapiens, UniProt P14902); experiment: IDO1 Cellular Assay (kynurenine production in IFN-γ stimulated Hela cancer cells); assay type: cell-based; conditions: human IFN-γ 50 ng/mL, 48 hours incubation, kynurenine at 490 nm
T2 construct: endogenous in cells; host or cells: Hela cancer cells stimulated with human IFN-γ
T2 sequence (P14902 whole entry): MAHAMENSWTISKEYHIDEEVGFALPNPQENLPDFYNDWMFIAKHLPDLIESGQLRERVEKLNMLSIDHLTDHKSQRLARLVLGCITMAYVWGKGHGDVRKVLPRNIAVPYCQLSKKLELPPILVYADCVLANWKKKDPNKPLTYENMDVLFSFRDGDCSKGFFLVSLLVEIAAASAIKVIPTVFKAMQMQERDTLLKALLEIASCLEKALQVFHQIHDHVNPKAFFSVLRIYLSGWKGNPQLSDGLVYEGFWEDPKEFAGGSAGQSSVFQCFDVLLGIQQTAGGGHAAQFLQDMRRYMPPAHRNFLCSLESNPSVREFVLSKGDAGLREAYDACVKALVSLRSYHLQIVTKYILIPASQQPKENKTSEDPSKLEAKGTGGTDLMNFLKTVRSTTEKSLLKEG
Method: Hela cancer cells (5×10^3 per well) with 85 μL DMEM medium containing 10% FBS were seeded in a 96-well plate and incubated at 95% humidity and 5% CO2 at 37° C. for 24 hours. human IFN-γ (10 μL, 50 ng/mL final concentration) and 5 μL serial dilutions of the test compounds were added into each well. The test compounds were dissolved in DMSO, and successively diluted with pH7.5 buffer (with final DMSO concentration of 0.25%) resulting in final concentrations of the test compounds ranging from 0 to 25 μM (0, 2.5, 7.5, 25, 75, 250, 750, 2500, 7500, & 25000 nM). After 48 hours of incubation, 70 uL of the supernatant per well was transferred to a new 96 well plate. Trichloroacetic acid (6.1 N, 8 μL) was mixed into each well and incubated at 50° C. for 30 min to hydrolyze N-formylkynurenine produced by IDO to kynurenine. The reaction mixture was then centrifuged for 10 min at 2500 RPM to remove sediments. 50 μL of the supernatant per well was transferred to another 96 well plate and mixed with 50 uL of 2% (w/v) p-dimethylaminobenzaldehyde in acetic acid. The yellow color derived from kynurenine was measured at 490 nm using a microplate reader. Percent inhibition of the test compounds was determined by measuring the decrease in kynurenine as compared to the control of DMSO vehicle, which was calculated by formula of (WC-WT)/WC, where WC is the mean absorbance of the control well minus blank well; WT is the mean absorbance of the test well minus the blank well. Data was analyzed by GraphPad Prism 5 and the IC50 values were obtained by non-linear regression.
as §1

T1 sequence (P48775 whole entry): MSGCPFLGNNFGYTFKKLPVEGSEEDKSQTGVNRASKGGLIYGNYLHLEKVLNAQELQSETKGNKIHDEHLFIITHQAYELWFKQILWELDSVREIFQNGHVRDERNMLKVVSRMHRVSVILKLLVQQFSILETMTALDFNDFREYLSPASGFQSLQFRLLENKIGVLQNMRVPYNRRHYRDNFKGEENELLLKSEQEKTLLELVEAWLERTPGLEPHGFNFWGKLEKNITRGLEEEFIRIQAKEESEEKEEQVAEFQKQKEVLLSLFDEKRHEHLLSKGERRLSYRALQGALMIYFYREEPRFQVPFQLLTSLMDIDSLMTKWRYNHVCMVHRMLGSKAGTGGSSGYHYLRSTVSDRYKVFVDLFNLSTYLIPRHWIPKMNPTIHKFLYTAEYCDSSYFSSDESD

IC50 [1] [µM] | IC50 [2] [µM] | Compound
1 to 5 | > 5 | CC(=O)N1C[C@@H]2CN(c3cc(Cl)cn4cncc34)C[C@@H]2C1(C)C (racemic) [Example 41, Racemic-1-((3aS,6aR)-5-(6-chloroimidazo[1,5-a]pyridin-8-yl)-1,1-dimethylhexahydropyrrolo[3,4-c]pyrrol-2(1H)-yl)ethanone]
> 5 | > 5 | CC(=O)N1C[C@@H]2CN(c3cc(Cl)cc4cncn34)C[C@@H]2C1(C)C (racemic) [Example 43, Racemic-1-((3aS,6aR)-5-(7-chloroimidazo[1,5-a]pyridin-5-yl)-1,1-dimethylhexahydropyrrolo[3,4-c]pyrrol-2(1H)-yl)ethanone]
> 5 | > 5 | CC1(C)[C@H]2CN(c3cc(Cl)cc4cncn34)C[C@H]2CN1S(C)(=O)=O (racemic) [Example 44, Racemic-7-chloro-5-((3aR,6aS)-4,4-dimethyl-5-(methylsulfonyl)hexahydropyrrolo[3,4-c]pyrrol-2(1H)-yl)imidazo[1,5-a]pyridine]
1 to 5 | > 5 | CC(=O)N1C[C@@H]2CN(c3cc(C(F)(F)F)cn4cncc34)C[C@@H]2C1(C)C (racemic) [Example 45, Racemic-1-((3aS,6aR)-1,1-dimethyl-5-(6-(trifluoromethyl)imidazo[1,5-a]pyridin-8-yl)hexahydropyrrolo[3,4-c]pyrrol-2(1H)-yl)ethanone]
1 to 5 | > 5 | CC1(C)[C@H]2CN(c3cc(C(F)(F)F)cn4cncc34)C[C@H]2CN1S(C)(=O)=O (racemic) [Example 46, Racemic-8-((3aR,6aS)-4,4-dimethyl-5-(methylsulfonyl)hexahydropyrrolo[3,4-c]pyrrol-2(1H)-yl)-6-(trifluoromethyl)imidazo[1,5-a]pyridine]
> 5 | > 5 | CC(=O)N1C[C@@H]2CN(c3c(C(F)(F)F)ccc4cncn34)C[C@@H]2C1(C)C (racemic) [Example 47, Racemic-1-((3aS,6aR)-1,1-dimethyl-5-(6-(trifluoromethyl)imidazo[1,5-a]pyridin-5-yl)hexahydropyrrolo[3,4-c]pyrrol-2(1H)-yl)ethanone]
> 5 | > 5 | CC1(C)[C@H]2CN(c3c(C(F)(F)F)ccc4cncn34)C[C@H]2CN1S(C)(=O)=O (racemic) [Example 48, Racemic-5-((3aR,6aS)-4,4-dimethyl-5-(methylsulfonyl)hexahydropyrrolo[3,4-c]pyrrol-2(1H)-yl)-6-(trifluoromethyl)imidazo[1,5-a]pyridine]
> 5 | > 5 | CC1(C)[C@H]2CN(c3cc(C(F)(F)F)cc4cncn34)C[C@H]2CN1S(C)(=O)=O (racemic) [Example 50, Racemic-5-((3aR,6aS)-4,4-dimethyl-5-(methylsulfonyl)hexahydropyrrolo[3,4-c]pyrrol-2(1H)-yl)-7-(trifluoromethyl)imidazo[1,5-a]pyridine]
> 5 | > 5 | CC(=O)N1C[C@@H]2CN(c3cc(C(F)(F)F)cc4cncn34)C[C@@H]2C1(C)C (racemic) [Example 51, Racemic-1-((3aS,6aR)-1,1-dimethyl-5-(7-(trifluoromethyl)imidazo[1,5-a]pyridin-5-yl)hexahydropyrrolo[3,4-c]pyrrol-2(1H)-yl)ethanone]
> 5 | > 5 | CC1(C)[C@H]2CN(c3c(C4CC4)ccc4cncn34)C[C@H]2CN1S(C)(=O)=O (racemic) [Example 55, Racemic-6-cyclopropyl-5-((3aR,6aS)-4,4-dimethyl-5-(methylsulfonyl)hexahydropyrrolo[3,4-c]pyrrol-2(1H)-yl)imidazo[1,5-a]pyridine]
> 5 | > 5 | CC(=O)N1C[C@@H]2CN(c3c(C4CC4)ccc4cncn34)C[C@@H]2C1(C)C (racemic) [Example 56, Racemic-1-((3aS,6aR)-5-(6-cyclopropylimidazo[1,5-a]pyridin-5-yl)-1,1-dimethylhexahydropyrrolo[3,4-c]pyrrol-2(1H)-yl)ethanone]
1 to 5 | > 5 | O=C(N[C@@H]1[C@H]2C=C(c3cc(Cl)cc4[nH]ncc34)C[C@H]21)C1CC1 (racemic) [Example 183, Racemic-N-((1S,5R,6S)-3-(6-chloro-1H-indazol-4-yl)bicyclo[3.1.0]hex-2-en-6-yl)cyclopropanecarboxamide]
≤ 0.5 | > 5 | CS(=O)(=O)N[C@H]1C[C@@H]2C[C@@](O)(c3cc(Cl)cc4[nH]ncc34)C[C@@H]2C1 [Example 3, N-((2r,3aR,5r,6aS)-5-(6-chloro-1H-indazol-4-yl)-5-hydroxyoctahydropentalen-2-yl)methanesulfonamide]
0.5 to 1 | > 5 | CC(=O)N1C[C@@H]2C[C@@](O)(c3cc(Cl)cn4cncc34)C[C@@H]2C1 [Example 6, 1-((3aR,5r,6aS)-5-(6-chloroimidazo[1,5-a]pyridin-8-yl)-5-hydroxyhexahydrocyclopenta[c]pyrrol-2(1H)-yl)ethanone]
> 5 | > 5 | CC(=O)N1C[C@@H]2C[C@@](O)(c3c(Cl)ccc4cncn34)C[C@@H]2C1 [Example 7, 1-((3aR,5r,6aS)-5-(6-chloroimidazo[1,5-a]pyridin-5-yl)-5-hydroxyhexahydrocyclopenta[c]pyrrol-2(1H)-yl)ethanone]
> 5 | > 5 | CC(=O)N1C[C@@H]2C[C@@](O)(c3cc(Cl)cc4cn[nH]c34)C[C@@H]2C1 [Example 8, 1-((3aR,5r,6aS)-5-(5-chloro-1H-indazol-7-yl)-5-hydroxyhexahydrocyclopenta[c]pyrrol-2(1H)-yl)ethanone]
≤ 0.5 | ≤ 0.5 | CNS(=O)(=O)N[C@H]1[C@@H]2C[C@@](O)(c3cc(Cl)cc4[nH]ncc34)C[C@@H]21 [Example 9, N′-methyl-N-((1R,3r,5S,6r)-3-(6-chloro-1H-indazol-4-yl)-3-hydroxybicyclo[3.1.0]hexan-6-yl)sulfuric diamide]
≤ 0.5 | 1 to 5 | CS(=O)(=O)N[C@H]1[C@@H]2C[C@@](O)(c3cc(C(F)(F)F)cc4[nH]ncc34)C[C@@H]21 [Example 10, N-((1R,3r,5S,6r)-3-hydroxy-3-(6-(trifluoromethyl)-1H-indazol-4-yl)bicyclo[3.1.0]hexan-6-yl)methanesulfonamide]
≤ 0.5 |  | O=C(N[C@H]1[C@@H]2C[C@@](O)(c3cc(Cl)cc4[nH]ncc34)C[C@@H]21)C1CCOCC1 [Example 91, N-((1R,3r,5S,6r)-3-(6-chloro-1H-indazol-4-yl)-3-hydroxybicyclo[3.1.0]hexan-6-yl)tetrahydro-2H-pyran-4-carboxamide]
≤ 0.5 |  | CC(C)C(=O)N[C@H]1[C@@H]2C[C@@](O)(c3cc(Cl)cc4[nH]ncc34)C[C@@H]21 [Example 92, N-((1R,3r,5S,6r)-3-(6-chloro-1H-indazol-4-yl)-3-hydroxybicyclo[3.1.0]hexan-6-yl)isobutyramide]
≤ 0.5 |  | O=S(=O)(N[C@H]1[C@@H]2C[C@@](O)(c3cc(Cl)cc4[nH]ncc34)C[C@@H]21)C1CCOCC1 [Example 94, N-((1R,3r,5S,6r)-3-(6-chloro-1H-indazol-4-yl)-3-hydroxybicyclo[3.1.0]hexan-6-yl)tetrahydro-2H-pyran-4-sulfonamide]
1 to 5 |  | NCC(=O)N[C@H]1[C@@H]2C[C@@](O)(c3cc(Cl)cc4[nH]ncc34)C[C@@H]21 [Example 103, 2-amino-N-((1R,3r,5S,6r)-3-(6-chloro-1H-indazol-4-yl)-3-hydroxybicyclo[3.1.0]hexan-6-yl)acetamide hydrochloride]

Reference: US11548868B2, “Heterocyclic compounds, compositions comprising heterocyclic compound, and methods of use thereof” (JS INNOPHARM (SHANGHAI) LTD, priority 2017, dated 2023)
